Consider two substances from patent US8648047B2, “Methods and compositions for inhibition of multi-drug resistance by hyaluronan oligomers” (Tufts University, priority 2002, dated 2014).

Assay [1] relates to TA3/St murine mammary carcinoma cells. Put plainly: Apoptosis assay in suspension culture. The format is cell-based, mouse. Particulars: 24 hours in suspension; 150 μg/ml controls, 50 nM wortmannin. The protocol: FIG. 3 is a bar graph showing induction of apoptosis by hyaluronan oligomers under anchorage-independent conditions. TA3/St murine mammary carcinoma cells were grown in suspension in serum-free medium for 24 hours in the presence of 50 or 150 μg/ml hyaluronan oligomers (o-HA), 150 μg/ml of ˜80 kDa molecular weight hyaluronan polymer (HA-80), 150 μg/ml chitin oligomers, 150 μg/ml chondroitin sulfate (CS), or 50 nM wortmannin (WM), a specific inhibitor of mammalian PI3 kinase (phosphoinositide 3-kinase). Apoptotic cells were then analyzed and counted as described in the EXAMPLES section. Results represent the average of two experiments and are expressed as percentage of total cells±range.
(§1) Treatment of tumor cells and preparation of cell lysates for biochemical assays. TA3/St and HCT116 cells were grown for 72 hours in 14 cm culture dishes, then harvested by trypsinization, washed in PBS and suspended in DMEM containing 10% FBS. Two million cells from these cultures were added to each well of non-adherent, Ultra-low cluster plates and incubated in suspension at 37° C. for a further 72 hours. […]
Apoptosis assay. […] Viable cells (green) and apoptotic cells containing fragmented nuclei (red) were counted and the percentage of apoptotic cells was then calculated.

The subject of assay [2] is caspase-3 activity in TA3/St murine mammary carcinoma cells. The experiment in a line: Caspase-3 assay. Particulars: 150 μg/ml. The format is cell-based, mouse. How it is done: FIG. 4A is a bar graph showing stimulation of caspase-3 activity in TA3/St murine mammary carcinoma cells by hyaluronan oligomers. Cells were grown in suspension in serum-free medium for 24 hours in the presence of 10, 50 or 150 μg/ml hyaluronan oligomers (o-HA), 150 μg/ml chondroitin sulfate (CS), or 20 μM LY294002 (LY), a specific inhibitor of mammalian PI3 kinase, and then analyzed for caspase-3 activity. Results are presented as the mean of specific activity (absorbance at 405 nm/mg/90 min)±S.D. for three independent experiments.
as §1, with “hours. The cells from each well were then collected, washed in PBS, suspended in 5 ml DMEM medium containing 2% bovine serum albumin (Cohn Analog, Sigma), re-plated in the cluster plates, and incubated in suspension at 37° C. for 96 hours; similar results were obtained with pre-incubations of 24-96 hours for most measurements. The hyaluronan oligomers or other reagents were then added and the cells incubated for another 24 hours in suspension.” for “hours.”

The subject of assay [3] is caspase-3 activity in HCT116 human colon carcinoma cells. Put plainly: Caspase-3 assay. Type of assay: cell-based. Particulars: HCT116, 150 μg/ml. The protocol: Treatment of tumor cells and preparation of cell lysates for biochemical assays. TA3/St and HCT116 cells were grown for 72 hours in 14 cm culture dishes, then harvested by trypsinization, washed in PBS and suspended in DMEM containing 10% FBS. Two million cells from these cultures were added to each well of non-adherent, Ultra-low cluster plates and incubated in suspension at 37° C. for a further 72 hours. The cells from each well were then collected, washed in PBS, suspended in 5 ml DMEM medium containing 2% bovine serum albumin (Cohn Analog, Sigma), re-plated in the cluster plates, and incubated in suspension at 37° C. for 96 hours; similar results were obtained with pre-incubations of 24-96 hours for most measurements. The hyaluronan oligomers or other reagents were then added and the cells incubated for another 24 hours in suspension.
The cells treated as above were harvested by centrifugation at room temperature. The pellets were washed twice in PBS, then lysed in buffer containing 1% Nonidet P-40 and protease inhibitors. Cell lysis was achieved by vortexing for three cycles of 15 sec at high speed followed by cooling on ice. The lysate was centrifuged at 12,000×g for 15 min at 4° C. in an Eppendorf 5415R centrifuge. After measuring the protein content of the supernatant, it was flash-frozen in liquid nitrogen and stored at −80° C. until use in the assays below.
Caspase-3 assay. […]

Assay [4] has as its system α-isoform of PI3 kinase in TA3/St cells. Put plainly: PI3 kinase α isoform assay (immunoprecipitated). Type of assay: cell-based, mouse. Particulars: 150 μg/ml polysaccharide controls, 50 nM wortmannin.
Description: (§3) PI3 kinase assay. For assay of total PI3 kinase, 250 ng of cell lysate protein were used per assay. Assays were performed in a 50 μl reaction mixture containing 0.001% Nonidet P-40, 159 μM ATP, 25 mM MgCl2, 5 mM EGTA, 150 μM ATP, 25 μCi of [γ-^32P] ATP, 125 mM MOPS, pH 7.0, and 0.2 mg/ml sonicated lipids containing phosphatidyl serine, phosphatidyl inositol and phosphatidyl inositol-4,5 bisphosphate in a 1:1:1 (v:v:v) ratio in sonication buffer (25 mM MOPS, pH 7.0, 1 mm EGTA) (Whitman, M. et al (1985) Nature 315, 239-242; Susa, M., et al. (1992) J Biol Chem 267, 22951-22956; Misra, S., et al. (1998) J Biol Chem 273, 26638-26644). The reactions were carried out at 37° C. for 20 min and stopped by addition of 100 μl of CH3OH/1M HCl (1:1). […] The organic layers were combined, dried under nitrogen, and analyzed by thin layer chromatography. ^32P-labeled phosphoinositides were resolved in water:acetic acid:n-propanol (34:1:65) and detected by autoradiography. ^32P incorporation into phosphatidylinositol 3,4,5-phosphate (PIP3) was quantified by liquid scintillation counting of thin layer chromatography spots scraped into and eluted in scintillation fluid.
(§4) For assay of specific PI3 kinase isoforms, whole cell lysates were incubated with antibody against the particular isoform plus protein A-Sepharose. PI3 kinase activity of the enzyme immobilized on beads was then measured as described above.
Assay [5] relates to α-isoform of PI3 kinase in HCT116 cells. Put plainly: PI3 kinase α isoform assay (immunoprecipitated). Type of assay: cell-based, human. As to conditions: same reagents as FIG. 5D.
Description: as §3, §4
Assay [6] has as its system phosphorylated Akt in TA3/St cells. Put plainly: Akt phosphorylation, Western blotting. Type of assay: cell-based, mouse. As to conditions: 150 μg/ml controls, 1:50 antibody to CD44 (FIG. 6C). How it is done:
FIG. 6A is a bar graph showing inhibition of Akt phosphorylation by hyaluronan oligomers in TA3/St murine mammary carcinoma cells treated in suspension with 1-150 μg/ml hyaluronan oligomers (o-HA) or 150 μg/mlchondroitin sulfate (CS). Cell lysates were then analyzed by Western blotting for phosphorylated Akt and quantified by densitometry. Results in A and B are presented as means of three independent experiments and expressed as percent untreated±S.D.
FIG. 6C is a representation of a Western blot of phosphorylated Akt from TA3/St cells: 1. untreated; 2. 150 μg/ml chondroitin sulfate; 3. 150 μg/ml hyaluronan polymer (mol. wt. ˜80 kDa); 4. 150 μg/ml chitin oligomers; 5. 50 μg/ml hyaluronan oligomers; 6. 150 μg/ml hyaluronan oligomers; 7. 50 nM wortmannin; 8. 20 μM LY294002; 9. 1:50 dilution of antibody against CD44. Results are representative of three experiments. Similar results to those in FIG. 6C were obtained also with HCT116 cells.
Treatment of tumor cells and preparation of cell lysates for biochemical assays. TA3/St and HCT116 cells were grown for 72 hours in 14 cm culture dishes, then harvested by trypsinization, washed in PBS and suspended in DMEM containing 10% FBS. […]
(§2) Immunoblotting. […] Immunoreactive bands were detected by enhanced chemiluminescence and the sizes of proteins were estimated using prestained molecular weight standards. Immunoreactive bands were quantified by densitometry. […]
A general note: In western blotting, separated proteins are transferred to a membrane and probed.

Assay [7] concerns PTEN in TA3/St cells. Put plainly: PTEN expression, immunoblotting. The format is cell-based, mouse. As to conditions: similar amounts (150 μg/ml) of controls. How it is done: FIG. 8A is a bar graph showing stimulation of expression of PTEN, a tumor suppressor, by HA-oligomers, in TA3/St murine mammary carcinoma cells. Cells were treated in suspension and then processed for immunoblotting of PTEN. The bars represent densitometric quantification of immunoblots after treatment with 10-150 μg/ml hyaluronan oligomers (o-HA) or 150 μg/ml chondroitin sulfate (CS). Results are presented as means of three independent experiments and expressed as percent untreated±S.D.
FIG. 8C is an immunoblot using TA3/St murine mammary carcinoma cells treated as in lanes: 1. untreated; 2. 150 μg/ml chondroitin sulfate; 3. 150 μg/ml chitin oligomers; 4. 150 μg/ml hyaluronan polymer (mol. wt. ˜80 kDa); 5. 50 μg/ml hyaluronan oligomers; 6. 150 μg/ml hyaluronan oligomers. Results are representative of three experiments. Similar results to FIG. 8C were obtained also with HCT116 cells.
PTEN levels in TA3/St mouse mammary carcinoma cells were measured by Western blotting; values were obtained by scanning the blots. HA oligomers (oligo) at 50-100 μg/ml caused ˜6-fold increase in PTEN levels compared to untreated control. […]
as §2

The subject of assay [8] is TA3/St murine mammary carcinoma cells. Put plainly: Proliferation in monolayer (anchorage-dependent) culture. Type of assay: cell-based, mouse. Particulars: 100-150 μg/ml.
Assay [9] relates to MCF-7/Adr drug-resistant human mammary carcinoma cells. The experiment in a line: Drug resistance, viable cell number (Coulter Counter). The format is cell-based. As to conditions: MCF-7/Adr; decoys introduced by adenovirus infection, or siRNA (FIG. 18). How it is done: FIG. 15A is a line graph showing that MCF-7/Adr drug-resistant human mammary carcinoma cells grown in culture with hyaluronan oligomers are sensitized to doxorubicin. MCF-7/Adr cells were obtained from MCF-7 cells by being selected for drug resistance by exposure to doxorubicin. Cells were grown for 24 h in 24-well plates in RPMI 1640 medium containing Glutamex 1 plus 10% fetal bovine serum at 37° in 5% CO2. Various concentrations of doxorubicin (doxo) were then added and the cells incubated for another 72 h, followed by a further 24 h in the presence or absence of 100 μg/ml hyaluronan oligomers (o-HA). The oligomers were a mixed population of 3-8 repeating disaccharides in length. The cells were then harvested and the number of viable cells was determined in a Coulter Counter.
FIG. 18 is a set of line graphs showing a resulting cell number, on the ordinate, following drug treatment with doxorubicin, concentration (log) in nM on the abscissa, showing restoration of drug sensitivity (inhibition of drug resistance) by HA oligomers, soluble hyaluronan-binding decoys, and CD44 siRNA, using derivatives of MCF-7 cells as in FIG. 17 above.
Therefore, the effect of co-treatment with hyaluronan oligomers on drug resistance was examined in an established system, i.e. MCF-7/Adr human mammary carcinoma cells that have been selected for resistance to doxorubicin (Fairchild, C. R., et al., Cancer Res 47, 5141-8, 1987). First, the effect of hyaluronan oligomers on resistance to doxorubicin in the MCF-7/Adr cells versus the relatively drug-sensitive, parental MCF-7 cell line was compared.

The subject of assay [10] is TA3/St murine mammary carcinoma cells. Particulars: soft agar; TA3/St transfectant clones over-expressing the protein; cited from earlier work.

In the case of chondroitin sulfate, the effect on apoptosis entry in assay [1] is listed as “do not have significant effects”. For the same substance, the “effect on caspase-3 activity” value in [2] and in assay [3] was “no significant effect” throughout. The “effect on PI3 kinase-α activity” value in assay [4] (20 μM LY294002, 1:50 antibody to CD44) was “Neither hyaluronan polymer, nor chondroitin sulfate, nor chitin oligomers had a significant effect”; in assay [4] (20 μM LY294002, 1:50 antibody to CD44, listed as chondroitin sulfate (CS)), “had no effect”; in [5] it was “Neither hyaluronan polymer, nor chondroitin sulfate, nor chitin oligomers had a significant effect”. In addition, the “effect on phosphorylation of Akt” value in [6] is on record as “not caused”. The “effect on PTEN levels” value was “do not stimulate PTEN levels” in [7] and “did not increase PTEN levels” in assay [7] (listed as Chondroitin sulfate (CS)).
Regarding “soluble CD44: hyaluronan-binding decoy, over-expressed in cells by transfection or adenovirus”, in assay [8], the effect on proliferation entry was “Neither HA oligomers nor soluble CD44 significantly affect proliferation”. Moreover, the “reversal of doxorubicin resistance” value in assay [9] was “reversed”. Also, the “inhibition of anchorage-independent growth” value in assay [10] is on record as “effective inhibitor”.
